Experimental data: patent US20170102398A1, “PREDICTING AND REDUCING COGNITIVE DECLINE BASED ON GSK-3 LEVELS” (HUMANETICS CORPORATION, priority 2014, published 2017)

What was measured:
[1] = tested on: rats; experiment: acute toxicity studies in rats; format: in vivo, rat
Description: (§1) Additional studies of D-pinitol's safety and efficacy included mutagenicity (AMES) tests, which were negative. […] In a phase I safety and pharmacokinetic study of D-pinitol in AD subjects, the time to peak plasma levels was about 90 minutes after administration, and the elimination half-life (t1/2) was 10 hours.

[2] = mutagenicity (AMES) tests
Description: as §1

[3] = subjects with insulin resistance, dosed daily with 20 mg/kg for 28 days; cited from earlier work
[4] = phase I safety and pharmacokinetic study in AD subjects; format: in vivo, human
Description: as §1

[5] = solubility in water; format: physicochemical
Source text: In some embodiments, the D-pinitol can be a component of a dietary supplement or a medical food (e.g., in combination with an edible oil), or a food for special dietary use. Medical foods are, by definition, formulated to be consumed or administered enterally under the supervision of a physician or other medical professional. The manufacture of medical foods typically is done in compliance with FDA Good Manufacturing Practices (GMP) requirements. The term “food for special dietary use” is defined by 21 C.F.R. §105.3, as applied to food for humans, as meaning • particular (as distinguished from general) uses of food, as follows: • (i) Uses for supplying particular dietary needs which exist by reason of a physical, physiological, pathological or other condition, including but not limited to the conditions of diseases, convalescence, pregnancy, lactation, allergic hypersensitivity to food, underweight, and overweight; • (ii) Uses for supplying particular dietary needs which exist by reason of age, including but not limited to the ages of infancy and childhood; • (iii) Uses for supplementing or fortifying the ordinary or usual diet with any vitamin, mineral, or other dietary property. Any such particular use of a food is a special dietary use, regardless of whether such food also purports to be or is represented for general use. […]

Structure (SMILES): CO[C@H]1[C@H](O)[C@@H](O)[C@@H](O)[C@H](O)[C@@H]1O [D-pinitol, 3-O-methyl-D-chiro-inositol]
- LD50 [1]: > 2000 mg/kg
- mutagenicity (AMES) tests [2]: negative
- increase in plasma D-pinitol concentration as compared to baseline [3]: 48 fold
- elimination half-life (t1/2) [4]: 10 h
- time to peak plasma levels ([4]; after administration): about 90 minutes
- solubility in water [5]: soluble in water
